One test deals with Gene 1 mRNA. In words: Gene 1 mRNA expression in brain tissue by RT-PCR. The format is in vivo, mice. To be noted: for Gene 1 expression amount in the nucleus accumbens induced by methamphetamine: methamphetamine 2 mg/kg s.c. six days, R(+)-SCH23390 0.1 mg/kg i.p. or raclopride 2 mg/kg i.p. 30 minutes before. Here is the method:
Antisense nucleotide of Gene 1 was continuously infused into the mouse cerebral ventricle by using a mini osmotic pump and methamphetamine was administered to the animals every day.
A mouse was fed with 6% ethanol or water (control) for 12 days, and then was subjected to decapitation. The amount of Gene 1 mRNA in the nucleus accumbens was measured by a RT-PCR method.

A further test concerns mice. Kind of test: Locomotor activity test. In kind it is in vivo. The conditions noted are these: methamphetamine administered to mice every day (FIG. 1: 2 mg/kg, s.c., six days), hydrochloride. Here is the method: In the test, ICR male mice (Japan SLC, Hamamatsu) that were 8-week old when the test was started. The mice were bred under conditions of light and dark cycle of 12 hours (light up: A.M 8:00), room temperature 23±1° C., and humidity 50±5%. The mice were freely fed with food (CE2: CLEA Japan, Tokyo) and water. Note here that this research program was approved by Animal Research Committee, Nagoya University School of Medicine and carried out in accordance with Guideline of Animal Research of Nagoya University School of Medicine and Principles of Laboratory Animal Care (National Institutes of Health Publication 85-23, 1985).
In the test, an acrylic cage (28 cm in length, 17 cm in width and 13 cm in height) that is the same kind as the home case was used. On the floor, a small amount of breeding chip was placed. […]
On days 1 to 3, mice were placed in a measurement cage for two hours so that the mice became accustomed to the measurement environment. […] Right after the administration, the total locomotor activity for two hours was measured.
Each of the antisense nucleotide of Gene 1 and 2 was infused into the mice cerebral ventricle continuously by using a mini osmotic pump and methamphetamine was administered to the animals every day. The locomotor activity on the first, third and fifth days was measured. […] The locomotor activity was measured for two hours. […]

In the next test the test system is Genes 1 to 3 mRNA. In words: Expression of Genes 1 to 3 mRNA by RT-PCR / real time RT-PCR after methamphetamine. In kind it is in vivo, mice. The text has this: Furthermore, when the increase of the expression amount was examined by a real time RT-PCR method, the expression amount was increased in the methamphetamine-administered cortex of frontal lobe, nucleus accumbens and striatum, respectively (FIGS. 10 to 12).

Test [1] deals with mouse (C57black6) nucleus accumbens. In words: cDNA subtraction of nucleus accumbens mRNA after methamphetamine. The format is in vivo. The conditions noted are these: methamphetamine 10 consecutive days, five genes incl. Gene 1, Gene 2, Gene 3 (Piccolo). The procedure: By using RNeasy mini kit (QIAGEN), mRNA was prepared by the following procedure. Mouse brain was taken out and the tissue was divided so as to be 30 mg or less. The brain tissue was dissolved in a solution containing a protein denaturizing agent and centrifuged with a spin column. Ethanol precipitation was repeated. Finally, mRNA was purified with silica gel.
The cDNA subtraction was carried out by using CLONTECH PCR-Select™ cDNA Subtraction Kit (CLONTECH) according to the attached instruction manual.
Methamphetamine-administered mice show hyperactivity, and when methamphetamine is administered to mice every day, the degree of hyperactivity is increased. This can be thought to be a mental disorder accompanying drug dependence (FIG. 1). Then, mRNA was taken out from the mouse (C57black6) nucleus accumbens to which methamphetamine had been administered for 10 consecutive days. Based on this, cDNA subtraction (CLONTECH) was carried out. In mice to which methamphetamine had been administered, a gene in which mRNA expression amount increased by 20 times or more than that of a control group was searched. As a result, five genes satisfy the requirement (FIG. 2). In the genes, three genes except for CREB3 and Odz4 were used for the later research. For convenience of description, each gene is referred to as Gene 1, Gene 2 and Gene 3 (Piccolo).

For test [2], the target named is T1, human dopamine transporter (Homo sapiens, UniProt Q01959).
T1 construct: expressed in transfected cells; host or cells: PC12 cells
T1 sequence (Q01959 whole entry): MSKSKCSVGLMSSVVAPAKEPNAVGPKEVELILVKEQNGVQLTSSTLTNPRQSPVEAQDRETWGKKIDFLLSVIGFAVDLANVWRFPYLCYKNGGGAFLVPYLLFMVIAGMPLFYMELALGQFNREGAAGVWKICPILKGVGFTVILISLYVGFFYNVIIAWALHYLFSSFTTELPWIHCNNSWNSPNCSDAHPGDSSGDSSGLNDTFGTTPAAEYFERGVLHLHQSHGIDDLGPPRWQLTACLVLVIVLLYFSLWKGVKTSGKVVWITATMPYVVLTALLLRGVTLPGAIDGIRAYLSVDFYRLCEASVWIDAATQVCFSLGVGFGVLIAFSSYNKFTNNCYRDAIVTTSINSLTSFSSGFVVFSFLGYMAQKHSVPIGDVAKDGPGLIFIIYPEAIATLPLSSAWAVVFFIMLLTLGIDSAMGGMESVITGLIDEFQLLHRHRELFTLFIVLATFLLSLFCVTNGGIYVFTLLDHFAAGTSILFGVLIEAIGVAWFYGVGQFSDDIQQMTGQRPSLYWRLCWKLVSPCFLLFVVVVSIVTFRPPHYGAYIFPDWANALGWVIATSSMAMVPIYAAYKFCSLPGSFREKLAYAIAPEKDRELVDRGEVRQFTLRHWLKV
In words: Fluorescence immunostaining of intracellular movement of dopamine transporter in PC12 cell. The conditions noted are these: before and after methamphetamine was acted.
Procedure: In the PC12 cell, the human dopamine transporter was forcedly expressed and fluorescence immunostaining of a human dopamine transporter was carried out before and after methamphetamine was acted.

6 compounds from patent publication US7776538B2, “Method for diagnosing methamphetamine dependence” (National University Corporation Nagoya University, priority 2005, dated 2010) can be followed below.

On to `CN1CCc2cc(Cl)c(O)cc2[C@@H](c2ccccc2)C1` [R(+)-SCH23390], for which the “Gene 1 expression amount in the nucleus accumbens induced by methamphetamine” value in the test with Gene 1 mRNA was “significant difference was observed”.

Regarding `CCO` [ethanol], the “Gene 1 mRNA amount in the nucleus accumbens” value with Gene 1 mRNA (6% ethanol fed for 12 days vs water) was “no significant correlation”.

`CN[C@@H](C)Cc1ccccc1.Cl` [methamphetamine, methamphetamine hydrochloride]: the locomotor activity entry in the test on mice was “enhanced”; in the test with mice (listed as Methamphetamine), “hyperactivity”. For the same compound, the “mRNA of Genes 1 to 3 (RT-PCR)” value in the test on Genes 1 to 3 mRNA (methamphetamine administered group compared with control group, all primer combinations) is on record as “increase of mRNA was observed”. Also, in the test with Genes 1 to 3 mRNA (methamphetamine-administered cortex of frontal lobe, nucleus accumbens and striatum), the “expression amount of Genes 1 to 3 (real time RT-PCR)” value is “increased”. Moreover, the “mRNA expression amount increase over control group” value in test [1] is on record as at least 20 times. Further, the “intracellular movement of the human dopamine transporter” value in test [2] is reported as “intracellular movement of the human dopamine transporter was observed”.

Regarding `CN1CCCC1c1cccnc1` (centres unmarked) [nicotine], in the test with Gene 1 mRNA (nicotine 0.05-1.0 mg/kg s.c. 12 days), the “Gene 1 mRNA amount in the nucleus accumbens” value is “correlation between the administration of nicotine and the expression amount of Gene 1 was observed”.

With `c1ccc(C2(N3CCCCC3)CCCCC2)cc1` [phencyclidine], in the test on Gene 1 mRNA (phencyclidine 10 mg/kg s.c. 14 days), the “Gene 1 mRNA amount in the cortex of frontal lobe” value was “no significant correlation”.

In the case of `CCN1CCC[C@H]1CNC(=O)c1c(O)c(Cl)cc(Cl)c1OC` [raclopride], the “Gene 1 expression amount in the nucleus accumbens induced by methamphetamine” value in the test on Gene 1 mRNA is on record as “significant difference was observed”.
